This is an account of results in patent publication US20180318383A1, “PEPTIDE HAVING NEURONAL LOSS PREVENTION AND REGENERATION EFFECTS, AND COMPOSITION CONTAINING SAME” (GEMVAX & KAEL CO., LTD., priority 2015, published 2018).

The test system of assay [1] is β-amyloid. As to the kind of experiment: Expression levels of all types of Aβs in 3XTg-AD mice (western blotting). It counts as in vivo. The conditions noted are these: hippocampus and whole brain; vs control and Donepezil. The method, then: (§1) To test the efficacy of PEP1 on AD, AD transgenic mice (3XTg-AD) were purchased from Jackson Laboratory. Genetic characteristics of the transgenic mice are as follows: B6; 129-Psen1tm1Mpm Tg(APPSwe, tauP301L)1Lfa/Mmjax. […] One week after mice were confirmed as pregnant, new mice were delivered and weaned for 3 weeks. Two weeks later, mature mice were obtained.
(§2) During the preliminary breeding and the entire period of the experiment, a temperature was maintained at 23±2° C. and a relative humidity was maintained at 60±10%, and then the mice were raised under a 12-hour dark/light cycle. Experimental animals were divided into five groups, and each group included 10 animals. The divided experimental groups are as follows. […]
(§3) The PEP1, physiological saline, donepezil and scramble peptide were subcutaneously injected at each concentration three times a week for two months from the age of 12 months, and then two months after the injection, cognitive/memory behavior tests (passive avoidance test and Y maze test) were performed to examine a degree of improvement in cognitive function and memory function. After the brain was extracted to separate the hippocampus, the amounts of amyloid beta in the hippocampus and the whole brain, and the amounts of an amyloid beta oligomer and NFT generated by tau hyperphosphorylation were determined by western blotting and immunostaining. […]
(In general: A western blot detects proteins with antibodies after separation by electrophoresis.)

Assay [2] is described as follows: Cell-free ROS production (DHBA level by HPLC). Conditions: 20 μM Aβ25-35 and PEP1 0, 1, 10, 50 μM. The method, then: To investigate how Aβ25-30 and PEP1 influenced ROS, a DHBA level was measured and observed by a cell-free method. This method was carried out by observing the DHBA level in a tube containing 20 μM Aβ25-30 and each concentration of PEP1 (0, 1, 10 or 50 μM) through HPLC.

The test system of assay [3] is AD transgenic mice (3XTg-AD). Briefly: Y-maze test. It counts as in vivo. The procedure:
as §1, §2, §3

Assay [4] relates to NSCs. As to the kind of experiment: Oxidative mitochondrial DNA damage (8-OHdG ELISA). It counts as cell-based, rat. Conditions: 20 μM Aβ25-35 + PEP1. The method, then: The oxidative DNA damage in the mitochondria was observed using an 8-OHdG ELISA kit. The mitochondria DNA was obtained using a genomic DNA isolation kit. 8-OHdG monoclonal antibodies were added to samples and a control group, and then corresponding HRP-attached secondary antibodies were added thereto. The samples were quantified using 8-OHdG and observed by measuring absorbance at 450 nm.

As for “EARPALLTSRLRFIPK (homo sapiens) [PEP1, hTERT-derived peptide consisting of 16 amino acids, telomerase location [611-626]]”, the “expression levels of all types of Aβs” value in assay [1] was “decreased”. Moreover, the “ROS production under a cell-free condition” value in assay [2] is listed as “did not exhibit a significant influence”. In addition, in assay [3] (3XTg-AD mice, treated from age 12 months, vs control and Donepezil), the “behavioral judgment (Y-maze test)” value is “excellent behavioral judgment”. In addition, in assay [3] (severe AD models, 20-month-old or older 3XTg-AD mice, PEP1 1 mg/kg s.c., vs physiological saline), the “ability to select a new path (spontaneous alteration (%)), Y-maze test” value was “increased”. Moreover, the “oxidative mitochondrial DNA damage” value in assay [4] is listed as “effectively decreased”.
